From US9850251B2, “Imidazole derivative used as antiviral agent and use therof in preparation of medicament” (priority 2013, dated 2017)

Legend:
[1] = test system: RSV respiratory tract virus (A long strain); test: RSV long CPE assay (cytopathic effect assay), EC50; type: cell-based; settings: human respiratory syncytial virus, HEp-2, 120 h; Hep2 cells infected with RSV A long strain, 5 days, CCK-8 readout
Method: (§1) Detect EC50 and CC50 values of anti RSV respiratory tract virus compounds through the cytopathic effect assay.
Virus strain: RSV respiratory tract virus (A long strain)
(§2) The cell plate was centrifugated (300 rpm) to make the cells adherent to the wall, placed into a 37° C., 5% CO2 incubator overnight.
(§3) 1) the compound in 100% DMSO underwent a semi logarithmic dilution, then was added to the cell plate with a Echo liquid handler. Ensure that the final concentration of DMSO was 1%;
(§4) 2) Cell-control hole: no compound and viruse were added; virus-control hole: no compound was added.
dilute RSV viruses to 100 TCID50/30 μL with medium cultured with 4° C. cells, and then add the diluted viruses to a cell plate (30 μL/hole) with Multidrop® automatic liquid distributor, and then placed into a 37° C., 5% CO2 culture incubator for 5 days.
1) after 5 days, observe the pathological change in each hole.
(§5) 2) add CCK-8 (Dojindo-CK04-20, 6 μL/hole) to 384 well plate with Multidrop® automatic liquid distributor;
(§6) 3) place the plate at a 37° C., 5% CO2 culture incubator for 3˜4 h, read the absorbance value with SPECTRA max 340PC_Molecular device at 450 nm and 630 nm;

[2] = RSV long CPE assay (cytopathic effect assay), CC50 toxicity in vitro; type: cell-based; settings: human, Hep2 cells, CCK-8 readout, top concentration 100 μM
Method: as §1, §2, §3, §4, §5, §6

| SMILES | EC50 [1] [µM] | CC50 at 5 days [2] [µM] |
| --- | --- | --- |
| CC(C)OC(=O)N1CC2(C1)C(=O)N(Cc1nc3c(n1CCCC(F)(F)F)CCCC3)c1cccc(Cl)c12 [Embodiment 86, Isopropyl 4′-chloro-2′-oxo-1′-((1-(4,4,4-trifluorobutyl)-4,5,6,7-tetrahydro-1H-benzo[d]imidazol-2-yl)methyl)spiro[azetidine-3,3′-indoline]-1-carboxylate] | < 0.1 | > 100 |
| CC1(C(=O)N2CC3(C2)C(=O)N(Cc2nc4c(n2CCCC(F)(F)F)CCCC4)c2ccccc23)CC1 [Embodiment 91] | < 0.1 | > 100 |
| CC(C)=C(F)Cn1c(CN2C(=O)C3(CN(C(=O)OC(C)C)C3)c3ccccc32)nc2c1CCCC2 [Embodiment 71, Isopropyl 1′-((1-(2-fluoro-3-methylbut-2-en-1-yl)-4,5,6,7-tetrahydro-1H-benzo[d]imidazol-2-yl)methyl)-2′-oxospiro[azetidine-3,3′-indoline]-1-carboxylate] | 0.1 to 1 | > 100 |
| CC(=O)N1CC2(C1)C(=O)N(Cc1nc3c(n1CCCC(F)(F)F)CCCC3)c1ccccc12 [Embodiment 92, 1-Acetyl-1′-((1-(4,4,4-trifluorobutyl)-4,5,6,7-tetrahydro-1H-benzo[d]imidazol-2-yl)methyl)spiro[azetidine-3,3′-indoline]-2′-one] | < 0.1 | > 100 |
| CC(C)OC(=O)N1CC2(C1)C(=O)N(Cc1nc3c(n1CCCC(F)(F)F)CCCC3)c1ccc(Cl)cc12 [Embodiment 80, Isopropyl 5′-chloro-2′-oxo-1′-((1-(4,4,4-trifluorobutyl)-4,5,6,7-tetrahydro-1H-benzo[d]imidazol-2-yl)methyl)spiro[azetidine-3,3′-indoline]-1-carboxylate] | < 0.1 | > 100 |
| CC(C)OC(=O)N1CC2(C1)C(=O)N(Cc1nc3c(n1/C=C(\F)C(C)C)CCCC3)c1ccccc12 [Embodiment 70, Isopropyl (Z)-1′-((1-(2-fluoro-3-methylbut-1-en-1-yl)-4,5,6,7-tetrahydro-1H-benzo[d]imidazol-2-yl)methyl)-2′-oxospiro[azetidine-3,3′-indoline]-1-carboxylate] | < 0.1 | > 100 |
| CCOC(=O)N1CC2(C1)C(=O)N(Cc1nc3c(n1CCCS(C)(=O)=O)CCCC3)c1ccccc12 [Embodiment 76, Ethyl 1′-((1-(3-(methylsulfonyl)propyl)-4,5,6,7-tetrahydro-1H-benzo[d]imidazol-2-yl)methyl)-2′-oxospiro[azetidine-3,3′-indoline]-1-carboxylate] | < 0.1 | > 100 |
| CCOC(=O)N1CC2(C1)C(=O)N(Cc1nc3c(n1CCCCF)CCCC3)c1ccccc12 [Embodiment 73] | < 0.1 | > 100 |
| CCC(F)(F)Cn1c(CN2C(=O)C3(CN(C(=O)OC(C)C)C3)c3ccccc32)nc2c1CCCC2 [Embodiment 67, Isopropyl 1′-((1-(2,2-difluorobutyl)-4,5,6,7-tetrahydro-1H-benzo[d]imidazol-2-yl)methyl)-2′-oxospiro[azetidine-3,3′-indoline]-1-carboxylate] | 0.1 to 1 | > 100 |
| CCOC(=O)N1CC2(C1)C(=O)N(Cc1nc3c(n1CCCC#N)CCCC3)c1ccccc12 [Embodiment 74, Ethyl 1′-((1-(3-cyanopropyl)-4,5,6,7-tetrahydro-1H-benzo[d]imidazol-2-yl)methyl)-2′-oxospiro[azetidine-3,3′-indoline]-1-carboxylate] | < 0.1 | > 100 |
| O=C1N(Cc2nc3c(n2CCCCO)CCCC3)c2ccccc2C12CC2 [Embodiment 63, 1′-((1-(4-Hydroxybutyl)-4,5,6,7-tetrahydro-1H-benzo[d]imidazol-2-yl)methyl)spiro[cyclopropane-1,3′-indoline]-2′-one] | < 0.1 | > 100 |
| CC(C)OC(=O)N1CC2(C1)C(=O)N(Cc1nc3c(n1CC(=O)C(C)C)CCCC3)c1ccccc12 [Embodiment 68, Isopropyl 1′-((1-(3-methyl-2-oxobutyl)-4,5,6,7-tetrahydro-1H-benzo[d]imidazol-2-yl)methyl)-2′-oxospiro[azetidine-3,3′-indoline]-1-carboxylate] | 0.1 to 1 | > 100 |
| O=C(C1CC1)N1CC2(C1)C(=O)N(Cc1nc3c(n1CCCC(F)(F)F)CCCC3)c1ccccc12 [Embodiment 93, 1-(Cyclopropanecarbonyl)-1′-((1-(4,4,4-trifluorobutyl)-4,5,6,7-tetrahydro-1H-benzo[d]imidazol-2-yl)methyl)spiro[azetidine-3,3′-indoline]-2′-one] | < 0.1 | > 100 |

Now from value to compound, other results behind:

| EC50 [1] [µM] | SMILES | CC50 at 5 days [2] [µM] |
| --- | --- | --- |
| 0.1 to 1 | CC(C)OC(=O)N1CC2(C1)C(=O)N(Cc1nc3c(n1CCCC(F)(F)F)C(O)CCC3)c1ccccc12 (stereo not shown) [Embodiment 109, Isopropyl 1′-((7-hydroxy-1-(4,4,4-trifluorobutyl)-4,5,6,7-tetrahydro-1H-benzo[d]imidazol-2-yl)methyl)-2′-oxospiro[azetidine-3,3′-indoline]-1-carboxylate] | > 100 |
| 0.1 to 1 | CC(C)OC(=O)N1CC2(C1)C(=O)N(Cc1nc3c(n1CCCC(F)(F)F)C(=O)CCC3)c1ccccc12 [Embodiment 108, Isopropyl 2′-oxo-1′-((7-oxo-1-(4,4,4-trifluorobutyl)-4,5,6,7-tetrahydro-1H-benzo[d]imidazol-2-yl)methyl)spiro[azetidine-3,3′-indoline]-1-carboxylate] | > 100 |
| 0.1 to 1 | CCOC(=O)N1CC2(C1)C(=O)N(Cc1nc3c(n1CCCC(F)(F)F)CCCC3C)c1ccccc12 (stereo not shown) [Embodiment 110, Ethyl 1′-((4-methyl-1-(4,4,4-trifluorobutyl)-4,5,6,7-tetrahydro-1H-benzo[d]imidazol-2-yl)methyl)-2′-oxospiro[azetidine-3,3′-indoline]-1-carboxylate] | > 100 |
| < 0.1 | Cc1nc(CN2C(=O)C3(CN(C(=O)OC(C)C)C3)c3ccccc32)n(CCCCO)c1C [Embodiment 100, Isopropyl 1′-((1-(4-hydroxybutyl)-4,5-dimethyl-1H-imidazol-2-yl)methyl)-2′-oxospiro[azetidine-3,3′-indoline]-1-carboxylate] | > 100 |
| < 0.1 | C=CCCn1c(CN2C(=O)C3(CN(C(=O)OC(C)C)C3)c3ccc(Cl)cc32)nc2c1CCCC2 [Embodiment 107, Isopropyl 1′-((1-(but-3-en-1-yl)-4,5,6,7-tetrahydro-1H-benzo[d]imidazol-2-yl)methyl)-6′-chloro-2′-oxospiro[azetidine-3,3′-indoline]-1-carboxylate] | > 100 |
| < 0.1 | CS(=O)(=O)N1CC2(C1)C(=O)N(Cc1nc3c(n1CCCC(F)(F)F)CCC3)c1ccccc12 [Embodiment 106, 1-(Methylsulfonyl)-1′-((1-(4,4,4-trifluorobutyl)-1,4,5,6-tetrahydrocyclopenta[d]imidazol-2-yl)methyl)spiro[azetidine-3,3′-indoline]-2′-one] | > 100 |
| < 0.1 | CS(=O)(=O)N1CC2(C1)C(=O)N(Cc1nc3c(n1CCCC(F)(F)F)CCCC3)c1ccccc12 [Embodiment 97, 1-(Methylsulfonyl)-1′-((1-(4,4,4-trifluorobutyl)-4,5,6,7-tetrahydro-1H-benzo[d]imidazol-2-yl)methyl)spiro[azetidine-3,3′-indoline]-2′-one] | > 100 |
